# Reference: patent US8338565B2, “Macrocyclic compounds for inhibition of tumor necrosis factor alpha” (Ensemble Therapeutics Corporation, priority 2008, dated 2012)
# Where two headings read alike, the source gives them in different places. Numbered stars: 1 amine (or outer) side, 2 acyl side, 3 side chain; on linkers, the order of the positions; unused ones are H or OH. Bridge positions count the residues as written; N and C are the ends. Square brackets hold non-standard residues; d marks the D form. Peptide text beside a SMILES is read from it. Tartaroyl(2R,3R-(OAc)2) = CC(=O)O[C@@H](C(=O)[*:1])[C@@H](OC(C)=O)C(=O)[*:2]; Bip(4'-Cl) = N[C@@H](Cc1ccc(-c2ccc(Cl)cc2)cc1)C(=O)O; Phe(4-CF3) = N[C@@H](Cc1ccc(C(F)(F)F)cc1)C(=O)O; dPhe(4-CF3) = N[C@H](Cc1ccc(C(F)(F)F)cc1)C(=O)O; Phe(2,4-Cl2) = N[C@@H](Cc1ccc(Cl)cc1Cl)C(=O)O; Bip = N[C@@H](Cc1ccc(-c2ccccc2)cc1)C(=O)O; dBip = N[C@H](Cc1ccc(-c2ccccc2)cc1)C(=O)O; dPhe(4-NH2) = Nc1ccc(C[C@@H](N)C(=O)O)cc1; Phe(4-Br) = N[C@@H](Cc1ccc(Br)cc1)C(=O)O; Phe(4-NH2) = Nc1ccc(C[C@H](N)C(=O)O)cc1; d(hPhe) = N[C@H](CCc1ccccc1)C(=O)O; d2Thi = N[C@H](Cc1cccs1)C(=O)O; Suc = O=C(CCC(=O)[*:2])[*:1]
# What was measured:
# [1] = biological target: T1, TNFα / TNFα receptor (TNFα R1/Fc) (Homo sapiens, UniProt P01375); experiment: Inhibition of binding of TNFα to the TNFα receptor (plate ELISA competition); conditions: Table 2
# T1 construct: purchased R&D Systems
# T1 sequence (P01375 77-233 limits assumed, species assumed): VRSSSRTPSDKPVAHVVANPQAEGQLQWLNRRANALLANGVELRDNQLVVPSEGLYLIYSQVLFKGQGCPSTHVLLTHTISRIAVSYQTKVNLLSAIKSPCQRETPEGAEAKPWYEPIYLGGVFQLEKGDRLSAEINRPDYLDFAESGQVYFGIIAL
# Procedure, shortened: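 Compound dilutions were preincubated 30 min at RT with 8.33 nM TNFα R1/Fc in PBST with 2% DMSO, then added to wells coated with 15 nM TNFα for 30 min. Bound receptor was detected with HRP anti-human Fc and TMB, read as A450.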
# [2] = system: TNF-α (degradation of IkB in HeLa cells or A431 cells); experiment: Human cell-based assay: inhibition of TNF-α induced degradation of IkB; conditions: for inhibition at 25 µM: 25 μM compound, read-out: Inhibition at Various Compound Concentrations, 25 μM; for inhibition at 10 µM: read-out: Inhibition at Various Compound Concentrations, 10 μM; for inhibition at 5 µM: read-out: Inhibition at Various Compound Concentrations, 5 μM
# Procedure: We used a human cell-based assay to determine the TNF-α antagonistic activity of the compounds of this invention based upon the ability of the compounds to inhibit the degradation of IkB in those cells. The assay was performed on either HeLa cells or A431 cells.
# On Day 1, wells of a 24-well tissue culture plate were seeded with cells that had been harvested from cultures in T-75 flasks by standard trypsin/EDTA treatment. The harvested cells were suspended in EMEM/10% FBS/P/S (100,000 HeLa cells/mL or 200,000 A431 cells/mL) and 1 mL aliquots were placed into each well. The cells were incubated overnight at 37° C. in a humidified CO2 incubator. On day 2, the cells were approximately 95% confluent.
# Test and control compounds were diluted to a 1 mM solution by dilution in DMSO. The assay was run in Costar tubes. Into each tube was placed 2.5 or 5.0 μL of test compound (for testing 5 μM and 10 μM concentrations, respectively), 2.5 μL of 100× TNF-α solution (200 ng/mL TNF-α in EMEM containing 1μg/mL cycloheximide) and, for those tubes containing 2.5 μL of compound, an additional 2.5 μL of DMSO. To each tube was then added 0.5 mL of EMEM containing 1μg/mL cycloheximide. Negative control tubes contained either a) no compound, or b) no TNF-α. Tubes were then incubated for 30 minutes at room temperature.
# Once incubation had begun, the media was aspirated from the cells in the 24-well plates. Sufficient EMEM/10% FBS/P/S containing 1 ug/mL cycloheximide was then added to cover the cells (approximately 3 mL) and the cells were retuned to the 37° C. humidified CO2 incubator until compound incubation was completed. The media was then aspirated from the cells, 0.2 mL of the compound solution was added and the cells re-incubated at 37° C. for 30 minutes. The plates were then placed on ice, the compound solution was aspirated from each well, and the cells washed once with 1 mL of cold PBS. Cells were then fixed with 500 μL of 3.7% formaldehyde in PBS (“fix solution”) for 20 minutes at room temperature. The fix solution was decanted and the cells permeabilized by 4× washing with 500 uL PBS/0.1% Triton X-100. After the final permeabilization wash, the cells were treated with 500 uL of Odyssey blocking buffer (OBB) and incubated at room temperature with shaking for 90 minutes.
# The OBB was decanted and then to each well was then added 125 μL each of mouse anti-IkB CST#4814 (diluted 1:200 in OBB) and rabbit anti-beta-tubulin CST#2146 (diluted 1:200 in OBB). Plates were sealed with parafin and incubated overnight at room temperature with shaking.
# On day 3, the antibody solution was removed from the cells and the cells were washed 5× with 0.5 mL PBST for five minutes each on a shaker. To each well was then aded 125 μL of a secondary antibody solution containing goat anti-mouse IgG-IRDye 800 and goat anti-rabbit IgG-IRDye (each diluted 1:500 in OBB+0.2% Tween 20). The plates were covered with aluminum foil and incubated for 1 hour at room temperature with shaking. The secondary antibody solution was removed and the cells washed 3× with 0.5 mL PBST for five minutes each on a shaker. Cells were then scanned by LICOR with the following settings: 700 intensity=6.0, 800 intensity=6.5; microplate2 settings with 3.0 mm offset; 169 resolution. LICOR values were fitted to an equation for a sigmoidal curve and IC50 values calculated from the fitted parameters. […] Blank cells indicate that the compound was not tested at that concentration. Certain compounds that were tested more than once and the values reflect the average of the multiple tests.
# [3] = read-out: Activity (IC50, inhibition of TNFα binding to TNFα R1/Fc)
# [4] = 10 μM compound, HeLa or A431 cells
# [5] = 5 μM compound, HeLa or A431 cells
structure (smiles),measurement,setting,value
O=C1CCC(=O)N[C@H](Cc2cccs2)C(=O)N[C@@H](Cc2ccc(Br)cc2)C(=O)N[C@H](Cc2ccccc2)C(=O)N[C@H](C(=O)O)Cc2ccc(cc2)N1 [Compound 85] ([d2Thi][Phe(4-Br)][dF][Phe(4-NH2)]-OH; linker N-4 via Suc),IC50,[1]; [3],10 to 30 µM
same,inhibition at 25 µM,[2]; HeLa or A431 cells,< 10%
O=C1CCC(=O)N[C@H](Cc2cccs2)C(=O)N[C@@H](Cc2ccc(C(F)(F)F)cc2)C(=O)N[C@H](Cc2ccccc2)C(=O)N[C@H](C(=O)O)Cc2ccc(cc2)N1 [Compound 89] ([d2Thi][Phe(4-CF3)][dF][Phe(4-NH2)]-OH; linker N-4 via Suc),IC50,[1]; [3],10 to 30 µM
same,inhibition at 25 µM,[2]; HeLa or A431 cells,< 10%
O=C1CCC(=O)N[C@H](CCc2ccccc2)C(=O)N[C@@H](Cc2ccc(Br)cc2)C(=O)N[C@H](Cc2ccccc2)C(=O)N[C@@H](C(=O)O)Cc2ccc(cc2)N1 [Compound 111] ([d(hPhe)][Phe(4-Br)][dF][dPhe(4-NH2)]-OH; linker N-4 via Suc),IC50,[1]; [3],10 to 30 µM
same,inhibition at 10 µM,[2]; [4],< 10%
"O=C1CCC(=O)N[C@H](CCc2ccccc2)C(=O)N[C@@H](Cc2ccc(Cl)cc2Cl)C(=O)N[C@H](Cc2ccccc2)C(=O)N[C@@H](C(=O)O)Cc2ccc(cc2)N1 [Compound 112] ([d(hPhe)][Phe(2,4-Cl2)][dF][dPhe(4-NH2)]-OH; linker N-4 via Suc)",IC50,[1]; [3],< 10 µM
same,inhibition at 10 µM,[2]; [4],< 10%
O=C1CCC(=O)N[C@H](CCc2ccccc2)C(=O)N[C@@H](Cc2ccc(-c3ccc(Cl)cc3)cc2)C(=O)N[C@H](Cc2ccccc2)C(=O)N[C@H](C(=O)O)Cc2ccc(cc2)N1 [Compound 116] ([d(hPhe)][Bip(4'-Cl)][dF][Phe(4-NH2)]-OH; linker N-4 via Suc),IC50,[1]; [3],< 10 µM
same,inhibition at 5 µM,[2]; [5],10 to 50%
same,inhibition at 10 µM,[2]; [4],< 10%
O=C1CCC(=O)N[C@H](CCc2ccccc2)C(=O)N[C@@H](Cc2ccc(-c3ccccc3)cc2)C(=O)N[C@H](Cc2ccccc2)C(=O)N[C@H](C(=O)O)Cc2ccc(cc2)N1 [Compound 117] ([d(hPhe)][Bip][dF][Phe(4-NH2)]-OH; linker N-4 via Suc),IC50,[1]; [3],< 10 µM
same,inhibition at 5 µM,[2]; [5],< 10%
same,inhibition at 10 µM,[2]; [4],50 to 80%
O=C1CCC(=O)N[C@H](Cc2ccc(C(F)(F)F)cc2)C(=O)N[C@@H](Cc2ccc(-c3ccccc3)cc2)C(=O)N[C@H](Cc2ccccc2)C(=O)N[C@H](C(=O)O)Cc2ccc(cc2)N1 [Compound 118] ([dPhe(4-CF3)][Bip][dF][Phe(4-NH2)]-OH; linker N-4 via Suc),IC50,[1]; [3],10 to 30 µM
same,inhibition at 10 µM,[2]; [4],10 to 50%
O=C1COc2ccc(cc2)C[C@@H](C(=O)N[C@@H](Cc2ccccc2)C(=O)O)NC(=O)[C@@H](CCc2ccc(C(F)(F)F)cc2)NC(=O)[C@H](Cc2ccccc2)NC(=O)[C@@H](Cc2ccc(C(F)(F)F)cc2)N1 [Compound 157],IC50,[1]; [3],< 10 µM
same,inhibition at 5 µM,[2]; [5],10 to 50%
same,inhibition at 10 µM,[2]; [4],50 to 80%
O=C1COc2ccc(cc2)C[C@@H](C(=O)N[C@@H](Cc2ccccc2)C(=O)O)NC(=O)[C@@H](CCc2ccccc2)NC(=O)[C@H](Cc2ccc(-c3ccccc3)cc2)NC(=O)[C@@H](CCc2ccccc2)N1 [Compound 158],IC50,"[1]; Activity (IC50, inhibition of TNFα binding to TNFα R1/Fc)",< 10 µM
same,inhibition at 5 µM,[2],50 to 80%
same,inhibition at 10 µM,[2],50 to 80%
O=C(O)[C@@H]1Cc2ccc(cc2)NC(=O)[C@H](O)[C@@H](O)C(=O)N[C@H](Cc2cccs2)C(=O)N[C@@H](Cc2ccc(-c3ccc(Cl)cc3)cc2)C(=O)N[C@H](Cc2ccccc2)C(=O)N1 [Compound 180],IC50,[1]; [3],< 10 µM
same,inhibition at 5 µM,[2]; [5],< 10%
same,inhibition at 10 µM,[2]; [4],< 10%
O=C1CCC(=O)N[C@H](Cc2cccs2)C(=O)N[C@H](Cc2ccc(-c3ccccc3)cc2)C(=O)N[C@H](Cc2ccccc2)C(=O)N[C@H](C(=O)O)Cc2ccc(cc2)N1 [Compound 194] ([d2Thi][dBip][dF][Phe(4-NH2)]-OH; linker N-4 via Suc),IC50,[1]; [3],> 100 µM
same,inhibition at 25 µM,[2]; HeLa or A431 cells,< 10%
O=C1CCC(=O)N[C@H](Cc2cccs2)C(=O)N[C@@H](Cc2ccc(-c3ccccc3)cc2)C(=O)N[C@H](Cc2ccccc2)C(=O)N[C@@H](C(=O)O)Cc2ccc(cc2)N1 [Compound 196] ([d2Thi][Bip][dF][dPhe(4-NH2)]-OH; linker N-4 via Suc),IC50,[1]; [3],< 10 µM
same,inhibition at 25 µM,[2]; HeLa or A431 cells,< 10%
O=C1CCC(=O)N[C@H](Cc2cccs2)C(=O)N[C@@H](Cc2ccc(-c3ccccc3)cc2)C(=O)N[C@H](Cc2ccccc2)C(=O)N[C@@H](C(=O)N[C@@H](Cc2ccccc2)C(=O)O)Cc2ccc(cc2)N1 [Compound 198] ([d2Thi][Bip][dF][dPhe(4-NH2)]F-OH; linker N-4 via Suc),IC50,[1]; [3],< 10 µM
same,inhibition at 25 µM,[2]; HeLa or A431 cells,50 to 80%
O=C1CCC(=O)N[C@H](Cc2cccs2)C(=O)N[C@@H](Cc2ccc(Br)cc2)C(=O)N[C@H](Cc2ccccc2)C(=O)N[C@H](C(=O)N[C@@H](Cc2ccccc2)C(=O)O)Cc2ccc(cc2)N1 [Compound 201] ([d2Thi][Phe(4-Br)][dF][Phe(4-NH2)]F-OH; linker N-4 via Suc),IC50,[1]; [3],< 10 µM
same,inhibition at 10 µM,[2]; [4],10 to 50%
O=C1COc2ccc(cc2)C[C@@H](C(=O)O)NC(=O)[C@H](Cc2ccccc2)NC(=O)[C@H](Cc2ccc(-c3ccccc3)cc2)NC(=O)[C@H](Cc2cccs2)N1 [Compound 212],IC50,[1]; [3],< 10 µM
same,inhibition at 5 µM,[2],< 10%
same,inhibition at 10 µM,[2],< 10%
"CC(=O)O[C@H]1C(=O)Nc2ccc(cc2)C[C@H](C(=O)O)NC(=O)[C@@H](CCc2ccccc2)NC(=O)[C@H](Cc2ccc(-c3ccccc3)cc2)NC(=O)[C@@H](Cc2cccs2)NC(=O)[C@@H]1OC(C)=O [Compound 217] ([d2Thi][Bip][d(hPhe)][dPhe(4-NH2)]-OH; linker N-4 via Tartaroyl(2R,3R-(OAc)2))",IC50,[1]; [3],< 10 µM
same,inhibition at 5 µM,[2]; [5],< 10%
same,inhibition at 10 µM,[2]; [4],< 10%
O=C1N[C@H](CCc2ccccc2)C(=O)N[C@@H](C(=O)O)Cc2ccc(cc2)NC(=O)[C@H](O)[C@@H](O)C(=O)N[C@H](Cc2cccs2)C(=O)N[C@H]1Cc1ccc(-c2ccccc2)cc1 [Compound 236],IC50,[1]; [3],< 10 µM
same,inhibition at 5 µM,[2]; [5],10 to 50%
same,inhibition at 10 µM,[2]; [4],10 to 50%
O=C1N[C@H](CCc2ccccc2)C(=O)N[C@@H](C(=O)O)Cc2ccc(cc2)NC(=O)[C@H](O)[C@@H](O)C(=O)N[C@H](Cc2ccccc2)C(=O)N[C@H]1Cc1ccc(Br)cc1 [Compound 237],IC50,[1]; [3],< 10 µM
same,inhibition at 5 µM,[2]; [5],< 10%
same,inhibition at 10 µM,[2]; [4],< 10%
O=C1N[C@H](CCc2ccccc2)C(=O)N[C@@H](C(=O)O)Cc2ccc(cc2)NC(=O)[C@H](O)[C@@H](O)C(=O)N[C@H](Cc2ccccc2)C(=O)N[C@H]1Cc1ccc(Cl)cc1Cl [Compound 239],IC50,[1]; [3],< 10 µM
same,inhibition at 5 µM,[2]; [5],< 10%
same,inhibition at 10 µM,[2]; [4],< 10%
